We go through 25 compounds from US20260250290A1 (BRISTOL-MYERS SQUIBB COMPANY, priority 2023, published 2026).

Counter-ions that a name gives are not always drawn.

One assay addresses T1, full length SGK1 (Homo sapiens, UniProt O00141).
T1 construct: 125 μM full length SGK1 (Life Technologies Part #PR7358A); purchased Life Technologies PR7358A
T1 sequence (O00141 1-431): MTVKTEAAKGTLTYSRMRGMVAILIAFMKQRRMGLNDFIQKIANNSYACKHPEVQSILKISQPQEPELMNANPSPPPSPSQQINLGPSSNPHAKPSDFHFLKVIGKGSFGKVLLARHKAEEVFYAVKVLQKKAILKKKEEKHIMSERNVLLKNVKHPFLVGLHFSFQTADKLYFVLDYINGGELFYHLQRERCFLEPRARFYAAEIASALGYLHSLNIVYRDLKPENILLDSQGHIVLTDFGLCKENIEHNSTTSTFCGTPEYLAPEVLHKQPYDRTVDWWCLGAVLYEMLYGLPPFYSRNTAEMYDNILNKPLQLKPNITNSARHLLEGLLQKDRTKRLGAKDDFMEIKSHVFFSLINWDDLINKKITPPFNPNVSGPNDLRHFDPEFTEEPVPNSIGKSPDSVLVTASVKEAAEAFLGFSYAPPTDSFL
Put plainly: SGK1 inhibition Assay A (Caliper LabChip electrophoretic separation of fluorescent peptide substrate and phosphorylated product). The assay is classed as biochemical. The settings on record: Assay A; 20 μM ATP, 40 min incubation; read-out: SGK1 IC50.
In the case of `NCC(=O)N1CC=C(c2cc(N3CCC[C@@H](NC(=O)c4ccc(Cl)s4)C3)c3c(N)ncnn23)C1` [Example 881, (R)-N-(1-(4-amino-7-(1-glycyl-2,5-dihydro-1H-pyrrol-3-y1)pyrrolo[2,1-f][1,2,4]triazin-5-yl)piperidin-3-y1)-5-chlorothiophene-2-carboxamide], the IC50 came to 7 nM.

Take `CC(=O)N1CC=C(c2cc(N3CCC[C@@H](NC(=O)c4sc(C)nc4C)C3)c3c(N)ncnn23)C1` [Example 472, (R)-N-(1-(7-(1-acetyl-2,5-dihydro-1H-pyrrol-3-yl)-4-aminopyrrolo[2,1-f][1,2,4]triazin-5-yl)piperidin-3-yl)-2,4-dimethylthiazole-5-carboxamide]: the IC50 was found to be 62 nM.

As to `CN(C)CCOc1cc(C(F)F)sc1C(=O)N[C@@H]1CCCN(c2cc(-c3ccc(C#N)c(F)c3)n3ncnc(N)c23)C1` [Example 313], the IC50 is 4 nM.

As to `Cc1nc(OC2CCN(C)CC2)c(C(=O)N[C@@H]2CCCN(c3cc(-c4ccc(C#N)nc4)n4ncnc(N)c34)C2)s1` [Example 362, (R)-N-(1-(4-amino-7-(6-cyanopyridin-3-yl)pyrrolo[2,1-f][1,2,4]triazin-5-yl)piperidin-3-yl)-2-methyl-4-((1-methylpiperidin-4-yl)oxy)thiazole-5-carboxamide], the 50% inhibitory concentration (IC50) came out at 19 nM.

Consider `COC(=O)N1CC=C(c2cc(N3CCC[C@@H](NC(=O)c4[nH]c5ccccc5c4OCCN(C)C)C3)c3c(N)ncnn23)C1` [Example 365, Methyl (R)-3-(4-amino-5-(3-(3-(2-(dimethylamino)ethoxy)-1H-indole-2-carboxamido)piperidin-1-yl)pyrrolo [2,1-f][1,2,4]triazin-7-yl)-2,5-dihydro-1H-pyrrole-1-carboxylate], for which the IC50 is 21 nM.

Consider `CC(=O)N1CC=C(c2cc(N3CCC[C@@H](NC(=O)c4sc5ccncc5c4OCCN(C)C)C3)c3c(N)ncnn23)C1` [Example 669, (R)-N-(1-(7-(1-acetyl-2,5-dihydro-1H-pyrrol-3-yl)-4-aminopyrrolo[2,1-f][1,2,4]triazin-5-yl)piperidin-3-yl)-3-(2-(dimethylamino)ethoxy)thieno [3,2-c]pyridine-2-carboxamide], for which the IC50 was 22 nM.

On to `CC(=O)N1CC=C(c2cc(N3CCC[C@@H](NC(=O)c4cc5ccccc5n4C)C3)c3c(N)ncnn23)C1` [Example 456, (R)-N-(1-(7-(1-acetyl-2,5-dihydro-1H-pyrrol-3-yl)-4-aminopyrrolo[2,1-f][1,2,4]triazin-5-yl)piperidin-3-yl)-1-methyl-1H-indole-2-carboxamide], for which the IC50 was found to be 41 nM.

Regarding `Cc1cc(C(=O)N[C@@H]2CCCN(c3cc(-c4ccc(S(C)(=O)=O)cc4)n4ncnc(N)c34)C2)cc(=O)[nH]1` [Example 40, (R)-N-(1-(4-amino-7-(4-(methylsulfonyl)phenyl)pyrrolo[2,1-f][1,2,4]triazin-5-yl)piperidin-3-yl)-6-methyl-2-oxo-1,2-d1Hydropyridine-4-carboxamide, TFA], the half-maximal inhibitory concentration (IC50) was determined as 115 nM.

`Nc1ncnn2c(-c3ccnc(C(F)F)c3)cc(N3CCC[C@@H](NC(=O)c4sc(C(F)F)cc4N4CCOCC4)C3)c12` [Example 344, (R)—N-(1-(4-amino-7-(2-(difluoromethyl)pyridin-4-yl)pyrrolo[2,1-f][1,2,4]triazin-5-yl)piperidin-3-yl)-5-(difluoromethyl)-3-morpholinothiophene-2-carboxamide]: the IC50 is 7 nM.

`COC(=O)N1CC=C(c2cc(N3CCC[C@@H](NC(=O)c4sc5ccc(C#N)cc5c4OC4CCN(C(=O)OC(C)(C)C)CC4)C3)c3c(N)ncnn23)C1` [Example 678, tert-butyl (R)-4-((2-((1-(4-amino-7-(1-(methoxycarbonyl)-2,5-dihydro-1H-pyrrol-3-yl)pyrrolo[2,1-f][1,2,4]triazin-5-yl)piperidin-3-yl)carbamoyl)-5-cyanobenzo[b]thiophen-3-yl)oxy)piperidine-1-carboxylate]: the IC50 came to 477 nM.

In the case of `CC(=O)N1CC=C(c2cc(N3CCC[C@@H](NC(=O)c4cccc(N5CCN(C)C(C)C5)n4)C3)c3c(N)ncnn23)C1` (stereo partly drawn) [Example 777, N-((R)-1-(7-(1-acetyl-2,5-dihydro-1H-pyrrol-3-yl)-4-aminopyrrolo[2,1-f][1,2,4]triazin-5-yl)piperidin-3-yl)-6-(3,4-dimethylpiperazin-1-yl)picolinamide], the IC50 was 44 nM.

Consider `CS(=O)(=O)c1ccc(-c2cc(N3CCCC(NC(=O)Nc4ccccc4)C3)c3c(N)ncnn23)cc1` (stereo not shown) [Example 9, 1-(1-(4-amino-7-(4-(methylsulfonyl)phenyl)pyrrolo[2,1-f][1,2,4]triazin-5-yl)piperidin-3-yl)-3-phenylurea, TFA], for which the IC50 amounted to 263 nM.

Regarding `CS(=O)(=O)c1ccc(-c2cc(N3CCC[C@@H](NC(=O)c4cn5ccsc5n4)C3)c3c(N)ncnn23)cc1` [Example 45, (R)-N-(1-(4-amino-7-(4-(methylsulfonyl)phenyl)pyrrolo [2,1-f][1,2,4]triazin-5-yl)piperidin-3-yl)imidazo[2,1-b]thiazole-6-carboxamide], the IC50 came to 28 nM.

In the case of `CC(=O)N1CC=C(c2cc(N3CCC[C@@H](NC(=O)c4csc(C)c4)C3)c3c(N)ncnn23)C1` [Example 720, (R)-N-(1-(7-(1-acetyl-2,5-dihydro-1H-pyrrol-3-yl)-4-aminopyrrolo[2,1-f][1,2,4]triazin-5-yl)piperidin-3-yl)-5-methylthiophene-3-carboxamide], the IC50 amounted to 5 nM.

Consider `Nc1ncnn2c(-c3ccc(C=O)cc3)cc(N3CCC[C@@H](NC(=O)c4ccc(Cl)s4)C3)c12` [Example 539], for which the IC50 was found to be 0.4 nM.

Turning to `CC(=O)N1CC=C(c2cc(N3CCC[C@@H](NC(=O)c4cccc(OC5CCN(C(C)C)CC5)n4)C3)c3c(N)ncnn23)C1` [Example 751, (R)-N-(1-(7-(1-acetyl-2,5-dihydro-1H-pyrrol-3-yl)-4-aminopyrrolo[2,1-f][1,2,4]triazin-5-yl)piperidin-3-yl)-6-((1-isopropylpiperidin-4-yl)oxy)picolinamide], the IC50 worked out at 37 nM.

Consider `NC(=O)c1ccc(-c2cc(N3CCC[C@@H](NC(=O)c4sc(C5CC5)cc4OC4CCNCC4)C3)c3c(N)ncnn23)cc1F` [Example 380, (R)-N-(1-(4-amino-7-(4-carbamoyl-3-fluorophenyl)pyrrolo[2,1-f][1,2,4]triazin-5-yl)piperidin-3-yl)-5-cyclopropyl-3-(piperidin-4-yloxy)thiophene-2-carboxamide], for which the IC50 came out at 1 nM.

Turning to `Cc1cc(N2CCOCC2)c(C(=O)N[C@@H]2CCCN(c3cc(-c4ccnc(F)c4)n4ncnc(N)c34)C2)s1` [Example 198, (R)—N-(1-(4-amino-7-(2-fluoropyridin-4-yl)pyrrolo[2,1-f][1,2,4]triazin-5-yl)piperidin-3-yl)-5-methyl-3-morpholinothiophene-2-carboxamide, 2 TFA], the IC50 was determined as 2 nM.

Turning to `CC(=O)N1CC=C(c2cc(N3CCC[C@@H](NC(=O)c4cc5c(s4)CCNC5)C3)c3c(N)ncnn23)C1` [Example 815, (R)—N-(1-(7-(1-acetyl-2,5-dihydro-1H-pyrrol-3-yl)-4-aminopyrrolo[2,1-f][1,2,4]triazin-5-yl)piperidin-3-yl)-4,5,6,7-tetrahydrothieno[3,2-c]pyridine-2-carboxamide TFA salt], the IC50 stood at 104 nM.

Regarding `Nc1ncnn2c(-c3ccco3)cc(N3CCC[C@@H](NC(=O)c4ccc(Cl)s4)C3)c12` [Example 230], the IC50 was determined as 21 nM.

With `CC(=O)N1CC=C(c2cc(N3CCC[C@@H](NC(=O)c4ccn(C)n4)C3)c3c(N)ncnn23)C1` [Example 738, (R)-N-(1-(7-(1-acetyl-2,5-dihydro-1H-pyrrol-3-yl)-4-aminopyrrolo[2,1-f][1,2,4]triazin-5-yl)piperidin-3-yl)-1-methyl-1H-pyrazole-3-carboxamide], the concentration for half-maximal inhibition (IC50) was 115 nM.

As for `CN(C)CCOc1cc(Cl)sc1C(=O)N[C@@H]1CCCN(c2cc(-c3ccnc(F)c3)n3ncnc(N)c23)C1` [Example 149, (R)-N-(1-(4-amino-7-(2-fluoropyridin-4-yl)pyrrolo[2,1-f][1,2,4]triazin-5-yl)piperidin-3-yl)-5-chloro-3-(2-(dimethylamino)ethoxy) thiophene-2-carboxamide, TFA], the IC50 came out at 1 nM.

Take `COc1ncc(-c2cc(N3CCC[C@@H](NC(=O)c4cccc(N5CCN(C)CC5)n4)C3)c3c(N)ncnn23)cn1` [Example 788, (R)-N-(1-(4-amino-7-(2-methoxypyrimidin-5-yl)pyrrolo[2,1-f][1,2,4]triazin-5-yl)piperidin-3-yl)-6-(4-methylpiperazin-1-yl)picolinamide]: the IC50 was found to be 434 nM.

As to `CNCCOc1cc(Cl)sc1C(=O)N[C@@H]1CCCN(c2cc(C3=CCN(C(C)=O)C3)n3ncnc(N)c23)C1` [Example 332D, (R)—N-(1-(7-(1-acetyl-2,5-dihydro-1H-pyrrol-3-yl)-4-aminopyrrolo[2,1-f][1,2,4]triazin-5-yl)piperidin-3-yl)-5-chloro-3-(2-(methylamino)ethoxy)thiophene-2-carboxamide], the IC50 was determined as 10 nM.

Staying with this assay, now noted: SGK1 IC50, Assay A; 20 μM ATP, 40 min incubation.
`CC(=O)N1CC=C(c2cc(N3CCC[C@@H](NC(=O)c4cccc(S(=O)(=O)F)c4)C3)c3c(N)ncnn23)C1` [Example 869, (R)-3-((1-(7-(1-acetyl-2,5-dihydro-1H-pyrrol-3-yl)-4-aminopyrrolo[2,1-f][1,2,4]triazin-5-yl)piperidin-3-yl)carbamoyl)benzenesulfonyl fluoride] showed an IC50 of 125 nM.

One may read the IC50 as the midpoint of a concentration-inhibition curve.
